# Experimental data published in paper PMC7481428, “Celastrol induces ROS-mediated apoptosis via directly targeting peroxiredoxin-2 in gastric cancer cells” (Theranostics, 2020).
# pKd: −log10 of the molar value.
# Molecular target: T1, peroxiredoxin-2 (Prdx2) (Homo sapiens, UniProt P32119)
# T1 construct: His-tagged recombinant Prdx2 (rhPrdx2)
# T1 sequence (P32119 2-198): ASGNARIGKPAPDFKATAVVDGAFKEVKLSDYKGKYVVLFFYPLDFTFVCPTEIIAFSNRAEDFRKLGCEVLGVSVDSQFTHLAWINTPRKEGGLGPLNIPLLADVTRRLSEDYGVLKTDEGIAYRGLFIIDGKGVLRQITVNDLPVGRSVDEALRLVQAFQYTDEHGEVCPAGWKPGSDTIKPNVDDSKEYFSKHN
# Assay: ITC (also SPR KD […]; peroxidase inhibition IC50 […])
# Assay type: binding
compound,measurement,value
CC1=C(O)C(=O)C=C2C1=CC=C1[C@@]2(C)CC[C@@]2(C)[C@@H]3C[C@](C)(C(=O)O)CC[C@]3(C)CC[C@]12C [Celastrol],pKd,6.19
